Data: patent US12552811B2, “Immunosuppressant, and preparation method therefor and use thereof” (Abbisko Therapeutics Co., Ltd., priority 2020, dated 2026)

How the values were obtained:
[1] = target: interaction between PD-1 and PD-L1 (Homo sapiens (Human), UniProt Q9NZQ7); test: PD1-PDL1 HTRF binding activity test; conditions: Cisbio PD-1/PD-L1 binding assay kit
Procedure: I. PD1-PDL1 HTRF Binding Activity Test
The effect of compounds of the examples of the present invention on the interaction between PD-1 and PD-L1 was determined by the PD-1/PD-L1 binding assay kit from Cisbio (#64ICP01PEG or 64ICP01PEH). The detailed experimental process was as follows: • 1) Pre-diluted compound solution, 4 μL of Tag1-PD-L1 and 4 μL of Tag2-PD1 were added to each well of a 384-well plate: • 2) After the mixture was incubated at room temperature for 15 min, 5 μL of anti-Tag1-Eu3+ antibody and 5 μL of anti-Tag2-XL665 antibody were then added; • 3) After incubated for 2 hrs at room temperature or overnight at 4° C., plates were read on Envision of Pelkin Elmer; and readings at 665 nm and 620 nm were recorded, and the ratio of the two readings was taken as a reading for each well; • 4) The reading of each well after compound treatment was compared with the reading of DMSO treated wells to obtain the percent inhibition of the compound; • 5) IC50 values of compounds and positive compounds of the examples of the present invention were determined by non-linear regression analysis of percent inhibition at different compound concentrations. II. Jurkat Reporter Gene Cellular Assay

[2] = Jurkat reporter gene cellular assay; format: cell-based; conditions: Homo sapiens; Jurkat/NF-κB-luc/PD1 + Raji-PD-L1 coculture, OKT3 1 μg/mL, 6 hrs, activation fold; read-out: Cell Activity EC50
Procedure: The effect of compounds of the examples of the present invention and positive compounds on the interaction between PD-1 and PD-L1 expressed on cell surfaces, and the related influence on T cell functions, were determined by a Jurkat reporter gene cellular assay.
Briefly, the reporter gene plasmid of NF-κB-luc and the plasmid of human PD-1 were transfected into Jurkat cells to establish a stably transfected cell line capable of stably expressing both PD-1 and NF-κB-Luc reporter genes; the expression level of PD-1 on the cell surface was confirmed by flow cytometry; and the expression of the reporter gene was confirmed via the response of the reporter gene stimulated by OKT-3 and Raiji cells.
In addition, the plasmid of human PD-L1 was transfected into Raji cells to obtain a cell line capable of stably expressing PD-L1. Jurkat/NF-κB-luc/PD1 cells and Raji-PD-L1 cells were then cocultured and stimulated with OKT-3. On this basis, the compounds were added, and the enhancement of the signal pathway of T cell activation by the inhibitory effect of the compounds on the interaction between PD-1 and PD-L1 was evaluated by readings of reporter gene responses. The specific experimental process was as follows: • 1) 30 μL of compound or antibody solution was added to each well of a white 96-well plate (coming, 3610) at different diluted concentrations, and 10 μL of OKT3 (Biolegend, 317326) was then added (the final concentration of OKT3: 1 μg/mL); • 2) 20 μL of Raji-PD-L1 cell suspension was added to each well with 5*10^4 cells for each well, and was incubated in an incubator for 20 min: • 3) 20 μL of Jurkat/NF-κb-luc/PD-1 cell suspension was added to each well with 5*10^4 cells for each well, and well mixed, and 6 hrs later, Bright-glo (Promega, E2620) was applied and plates were read on Envision; • 4) The reading of each well treated with the compound was compared with the reading of each well treated with DMSO to obtain the activation fold of the compound; • 5) EC50 values of compounds and positive compounds of the examples of the present invention were determined by non-linear regression analysis of activation folds at different compound concentrations.

[3] = Pharmacokinetic assay in mice; format: in vivo; conditions: male, mouse; ICR mice, PO 10 mg/kg, plasma
Procedure: III. Pharmacokinetic Assay in Mice
The purpose of this study was to study the pharmacokinetic behaviors of some compounds of the present invention, and administration routes were: per oral administration (PO) to ICR mice at a dose of 10 mg/kg.
The compounds used in this test came from the compounds of the specific examples of the present invention.
ICR mice, male, N=3, with the original source of Shanghai Sippr-BK Laboratory Animal Co. Ltd.
2.3 Preparation and Administration of Drug
The compounds were weighed, and dissolved in a solvent of 0.5% SDS+0.5% CMCNa. The mixture solutions were mixed well by shaking and ultrasonic treatment to obtain colorless clear solutions. The solutions were orally administered to nine mice after an overnight fast. The dosage of administration was 10 mg/kg.
• 1) With about 90 μL/time point, blood was drawn from the submaxillary vein, and heparin sodium was added for anticoagulation. The blood samples were placed onto the ice, and were centrifuged (centrifugation conditions: 8000 r/min, 6 min, 2-8° C.) within 1 hr to obtain plasmas. • 2) The time points for blood sampling were at 0 hr, 0.25 hr, 0.5 hr, 1 hr, 2 hrs, 4 hrs, 6 hrs, 8 hrs and 24 hrs after administration. The samples were stored in a refrigerator at −20° C. • 3) 40 μL of plasma sample was added to 160 μL of cold acetonitrile containing an internal standard, and the mixture solution was vortexed for 3 min and centrifuged at 11,000 r/min for 5 min. • 4) 100 μL of supernate was taken and added to 100 μL of water, and 5 μL of the sample was taken and analyzed by LC/MS/MS.
The compounds from some representative examples of the present invention were administered and tested according to the above method, and their prototype compounds were detected.

Sequence of interaction between PD-1 and PD-L1 (Q9NZQ7 19-238): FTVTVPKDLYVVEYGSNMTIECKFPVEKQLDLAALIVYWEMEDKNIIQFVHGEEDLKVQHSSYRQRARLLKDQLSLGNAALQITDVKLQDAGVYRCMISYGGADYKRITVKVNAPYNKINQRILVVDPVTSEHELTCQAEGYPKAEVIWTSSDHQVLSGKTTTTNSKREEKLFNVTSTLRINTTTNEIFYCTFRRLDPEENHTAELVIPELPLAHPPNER

Row | Structure (SMILES) | IC50 [1] [µM] | EC50 [2] [µM] | AUC(0-t) [3] [ng·h/mL] | Cmax [3] [ng/mL] | MRT [3] [h] | Tmax [3] [h] | half-life [3] [h]
1 | CC(C)N1CCc2cc(C(=O)Nc3cccc(-c4cccc(NC(=O)c5nc6c(n5C)CCN(CCC57CCC(C(=O)O)(CC5)C7)C6)c4Cl)c3Cl)ncc2C1 [Example 1, 4-(2-(2-((2,2′-dichloro-3′-(7-isopropyl-5,6,7,8-tetrahydro-2,7-naphthyridine-3-carboxamido)-[1,1′-biphenyl]-3-yl)carbamoyl)-1-methyl-1,4,6,7-tetrahydro-5H-imidazo[4,5-c]pyridin-5-yl)ethyl)bicyclo[2.2.1]heptane-1-carboxylic acid] | 0.00073 | 0.0538 | 18400 | 2850 | 4.9 | 0.5 | 3.6
2 | CN1CCc2cc(C(=O)Nc3cccc(-c4cccc(NC(=O)c5nc6c(n5C)CCN(CCC57CCC(C(=O)O)(CC5)C7)C6)c4Cl)c3Cl)ncc2C1 [Example 2, 4-(2-(2-((2,2′-dichloro-3′-(7-methyl-5,6,7,8-tetrahydro-2,7-naphthyridine-3-carboxamido)-[1,1′-biphenyl]-3-yl)carbamoyl)-1-methyl-1,4,6,7-tetrahydro-5H-imidazo[4,5-c]pyridin-5-yl)ethyl)bicyclo[2.2.1] heptane-1-carboxylic acid] | 0.000178 | 0.05 | 1820 | 2320 | 1.8 | 0.083 | 4
3 | CC(C)N1CCc2cc(C(=O)Nc3cccc(-c4cccc(NC(=O)c5nc6c(n5C)CCN(CCC57CCC(C(=O)O)(CC5)CC7)C6)c4Cl)c3Cl)ncc2C1 [Example 58, 4-(2-(2-((2,2′-dichloro-3′-(7-isopropyl-5,6,7,8-tetrahydro-2,7-naphthyridine-3-carboxamido)-[1,1′-biphenyl]-3-yl)carbamoyl)-1-methyl-1,4,6,7-tetrahydro-5H-imidazo[4,5-c]pyridin-5-yl)ethyl)bicyclo [2.2.2]octane-1-carboxylic acid] | 0.00073 | 0.0535 | 13900 | 1630 | 5.7 | 1 | 3.8
4 | CC(C)N1CCc2cc(C(=O)Nc3cccc(-c4cccc(NC(=O)c5nc6c(n5C)CCN(CCC57C8C9C5C5C7C8C95C(=O)O)C6)c4Cl)c3Cl)ncc2C1 (stereo not shown) [Example 59, 4-(2-(2-((2,2′-dichloro-3′-(7-isopropyl-5,6,7,8-tetrahydro-2,7-naphthyridine-3-carboxamido)-[1,1′-biphenyl]-3-yl)carbamoyl)-1-methyl-1,4,6,7-tetrahydro-5H-imidazo[4,5-c]pyridin-5-yl)ethyl)cubane-1-carboxylic acid] | 0.000904 | 0.0338 | 2300 | 616 | 2.4 | 0.5 | 1.2

Continued by falling IC50 [1], values first:

Row | IC50 [1] [µM] | EC50 [2] [µM] | AUC(0-t) [3] [ng·h/mL] | Cmax [3] [ng/mL] | MRT [3] [h] | Tmax [3] [h] | half-life [3] [h] | Structure (SMILES)
5 | 0.000358 | 0.0863 |  |  |  |  |  | CC(C)N1CCc2cc(/C(F)=C/c3cccc(-c4cccc(NC(=O)c5nc6c(n5C)CCN(CCC57CCC(C(=O)O)(CC5)C7)C6)c4Cl)c3Cl)ncc2C1 [Example 25, (Z)-4-(2-(2-((2,2′-dichloro-3′-(2-fluoro-2-(7-isopropyl-5,6,7,8-tetrahydro-2,7-naphthyridin-3-yl)vinyl)-[1,1′-biphenyl]-3-yl)carbamoyl)-1-methyl-1,4,6,7-tetrahydro-5H-imidazo[4,5-c]pyridin-5-yl)ethyl) bicyclo[2.2.1]heptane-1-carboxylic acid]
6 | 0.000253 | 0.0294 | 4250 | 2420 | 2 | 0.5 | 1.6 | CC(C)N1CCc2cc(C(=O)Nc3cccc(-c4cccc(NC(=O)c5nc6c(n5C)CCN(CCC57CC(C(=O)O)(C5)C7)C6)c4Cl)c3Cl)ncc2C1 [Example 60, 3-(2-(2-((2,2′-dichloro-3′-(7-isopropyl-5,6,7,8-tetrahydro-2,7-naphthyridine-3-carboxamido)-[1,1′-biphenyl]-3-yl)carbamoyl)-1-methyl-1,4,6,7-tetrahydro-5H-imidazo[4,5-c]pyridin-5-yl)ethyl)bicyclo [1.1.1]pentane-1-carboxylic acid]
